From publication PMC10600239, “Selective MCL-1 inhibitor ABBV-467 is efficacious in tumor models but is associated with cardiac troponin increases in patients” (Communications Medicine, 2023)
“And” between values parts separate entries of the source, which are not always exact repeats. Identical values can stand only once.

What was measured:
OCI-AML2 xenografts = assay: OCI-AML2 xenograft efficacy (tumor volume, body weight); conditions: venetoclax 25 mg/kg QD × 14, azacitidine 8 mg/kg Q7D × 3, or the combination of both
Method: All animal studies were conducted in accordance with the guidelines approved by the Institutional Animal Care and Use Committees of AbbVie. The research protocol was approved by In Vivo Pharmacology at AbbVie prior to study initiation but was not publicly registered or disclosed. Female C.B-17 SCID-beige mice (AMO-1, OPM-2, NCI-H929, and OCI-AML2 xenografts) and female NSG mice (MV4-11-Red.Fluc systemic) were purchased from Charles River Laboratories (Wilmington, MA). Animals were housed in a light cycle-controlled room with HEPA filtration at 22 °C. Animals had nesting and climbing cage topper as the primary environmental enrichment. Animals were inoculated subcutaneously in the right flank with 5 × 10^6 (AMO-1, OPM-2, NCI-H929, and OCI-AML2) or intravenous (IV) with 5 × 10^6 (MV4-11-Red.Fluc). The inoculation volume (0.2 mL) comprised a 50:50 mixture of cells in growth media and Matrigel (BD Biosciences) for subcutaneous injections and 100% phosphate-buffered saline for IV administration. […] Electronic calipers were used to measure the length and width of each tumor 2 to 3 times per week. Tumor volume was estimated by applying the following equation: volume = length × width^2/2. All groups remained blinded during measurements and dosing; only veterinary staff were aware of group identity. When tumors reached approximately 200 mm^3, mice were randomized by match and distributed into treatment and control groups. All xenograft trials were conducted using 5 to 10 mice per group, and all mice were ear tagged and monitored individually throughout the studies.
For combination studies, all compounds were administered within 30 min of each other.
The tumor growth delay (TGD) percentage was determined as the percentage increase of the median time period for the treatment group to reach an arbitrary tumor volume of 1000 mm^3 relative to the vehicle control group. […] A power analysis was conducted using historical data to determine the number of animals required to yield significance of 0.05 at a 30% difference. There were no animals excluded. Data from experiments in vivo were analyzed using the student’s t-test for TGI values and the Mann–Whitney U test for TGD using Excel and GraphPad Prism. Fisher’s exact test was used to probe significance of differences in response frequency.

MV4-11-Red.Fluc = assay: Systemic MV4-11-Red.Fluc model (bioluminescence, total flux); type: in vivo, mouse; design: bioluminescence signal, individual mouse (ear tag), 10 min post: unit: p/s; conditions: for bioluminescence signal, group Average, 10 min post / bioluminescence signal, individual mouse (ear tag), 10 min post: MV 4-11 red.fluc, A-1726694 q7dx3 IV, ABT-199 50mkd qdx21 PO
Method: All animal studies were conducted in accordance with the guidelines approved by the Institutional Animal Care and Use Committees of AbbVie. The research protocol was approved by In Vivo Pharmacology at AbbVie prior to study initiation but was not publicly registered or disclosed. Female C.B-17 SCID-beige mice (AMO-1, OPM-2, NCI-H929, and OCI-AML2 xenografts) and female NSG mice (MV4-11-Red.Fluc systemic) were purchased from Charles River Laboratories (Wilmington, MA). Animals were housed in a light cycle-controlled room with HEPA filtration at 22 °C. Animals had nesting and climbing cage topper as the primary environmental enrichment. Animals were inoculated subcutaneously in the right flank with 5 × 10^6 (AMO-1, OPM-2, NCI-H929, and OCI-AML2) or intravenous (IV) with 5 × 10^6 (MV4-11-Red.Fluc). The inoculation volume (0.2 mL) comprised a 50:50 mixture of cells in growth media and Matrigel (BD Biosciences) for subcutaneous injections and 100% phosphate-buffered saline for IV administration. All cell lines used in this publication were authenticated using IDEXX for STR profiling as well as their IMPACT and human IMPACT panels for pathogen screening. Electronic calipers were used to measure the length and width of each tumor 2 to 3 times per week. Tumor volume was estimated by applying the following equation: volume = length × width^2/2. All groups remained blinded during measurements and dosing; only veterinary staff were aware of group identity. When tumors reached approximately 200 mm^3, mice were randomized by match and distributed into treatment and control groups. All xenograft trials were conducted using 5 to 10 mice per group, and all mice were ear tagged and monitored individually throughout the studies. Any animal with a tumor above 2000 mm^3 or 15% loss in body weight was euthanized and removed from the study. Tumor burden in the systemic MV4-11-Red.Fluc experiment was measured using an IVIS® spectrum from PerkinElmer by taking the total photon flux of the entire dorsal side of an individual mouse. Ten minutes prior to imaging, animals received intraperitoneally 0.2 mL of a 15-mg/mL solution of D-Luciferin (PerkinElmer, Catalog #122799) formulated in 100% phosphate-buffered saline. Animals were anesthetized using 3.5% isoflurane and maintained using 2%. Six days after inoculation, animals were imaged and randomized into vehicle and treatment groups at a total flux of ~1 × 10^8. A background control mouse that was tumor naive but received D-Luciferin was placed in the upper left corner of each image. The total flux from this animal was subtracted from the total flux of each animal present in the image. […]

[1] = Day 10, individual mice (ROI 2-10), listed as ABT-199
[2] = Day 13, individual mice (ROI 2-10), listed as ABT-199
[3] = Day 17, individual mice (ROI 2-10), listed as ABT-199
[4] = Day 20, individual mice (ROI 2-10), listed as ABT-199
[5] = Day 24, individual mice (ROI 2-10), listed as ABT-199
[6] = Day 31, individual mice (ROI 2-10), listed as ABT-199

## CC1(C)CCC(CN2CCN(c3ccc(C(=O)NS(=O)(=O)c4ccc(NCC5CCOCC5)c([N+](=O)[O-])c4)c(Oc4cnc5[nH]ccc5c4)c3)CC2)=C(c2ccc(Cl)cc2)C1 [venetoclax]
OCI-AML2 xenografts
  effect on OCI-AML2 xenograft growth: no meaningful effect
MV4-11-Red.Fluc; 50 mg/kg for 21 days, PO
  antitumor activity: no antitumor activity
MV4-11-Red.Fluc; 648 h
  Total Flux: 2.48E+10 p/s
  Total Flux minus ROI 1 (background): 2.48E+10 p/s
MV4-11-Red.Fluc; [1]
  Total Flux [p/s]: 3.06E+08 p/s and 5.81E+08 p/s and 2.31E+08 p/s and 9.72E+08 p/s and 7.29E+08 p/s and 4.72E+08 p/s and 3.55E+08 p/s and 4.65E+08 p/s and 4.49E+08 p/s
  Total flux minus background control mouse (ROI 1): 3.02E+08 p/s and 5.77E+08 p/s and 2.27E+08 p/s and 9.68E+08 p/s and 7.24E+08 p/s and 4.68E+08 p/s and 3.50E+08 p/s and 4.61E+08 p/s and 4.45E+08 p/s
MV4-11-Red.Fluc; [2]
  Total Flux [p/s]: 1.30E+09 p/s and 1.10E+09 p/s and 6.50E+08 p/s and 9.71E+08 p/s and 1.65E+09 p/s and 8.95E+08 p/s and 8.72E+08 p/s and 1.18E+09 p/s and 1.23E+09 p/s
  Total flux minus background control mouse (ROI 1): 1.29E+09 p/s and 1.09E+09 p/s and 6.41E+08 p/s and 9.63E+08 p/s and 1.64E+09 p/s and 8.87E+08 p/s and 8.64E+08 p/s and 1.18E+09 p/s and 1.22E+09 p/s
MV4-11-Red.Fluc; [3]
  Total Flux [p/s]: 3.56E+09 p/s and 4.83E+09 p/s and 3.68E+09 p/s and 6.21E+09 p/s and 6.82E+09 p/s and 2.69E+09 p/s and 4.42E+09 p/s and 4.69E+09 p/s and 4.88E+09 p/s
  Total flux minus background control mouse (ROI 1): 3.54E+09 p/s and 4.80E+09 p/s and 3.65E+09 p/s and 6.19E+09 p/s and 6.79E+09 p/s and 2.67E+09 p/s and 4.40E+09 p/s and 4.67E+09 p/s and 4.85E+09 p/s
MV4-11-Red.Fluc; [4]
  Total Flux [p/s]: 8.57E+09 p/s and 1.38E+10 p/s and 5.34E+09 p/s and 1.24E+10 p/s and 6.94E+09 p/s and 6.64E+09 p/s and 8.48E+09 p/s and 1.02E+10 p/s and 9.62E+09 p/s
  Total flux minus background control mouse (ROI 1): 8.51E+09 p/s and 1.38E+10 p/s and 5.28E+09 p/s and 1.23E+10 p/s and 6.88E+09 p/s and 6.58E+09 p/s and 8.42E+09 p/s and 1.02E+10 p/s and 9.56E+09 p/s
MV4-11-Red.Fluc; [5]
  Total Flux [p/s]: 9.23E+09 p/s and 1.74E+10 p/s and 6.63E+09 p/s and 2.32E+10 p/s and 2.87E+10 p/s and 1.25E+10 p/s and 1.47E+10 p/s and 1.56E+10 p/s and 1.06E+10 p/s
  Total flux minus background control mouse (ROI 1): 9.16E+09 p/s and 1.73E+10 p/s and 6.56E+09 p/s and 2.31E+10 p/s and 2.87E+10 p/s and 1.24E+10 p/s and 1.46E+10 p/s and 1.55E+10 p/s and 1.06E+10 p/s
MV4-11-Red.Fluc; Day 27, individual ROI (one per animal), background-subtracted, listed as ABT-199
  Total Flux minus ROI 1 (background): 2.02E+10 p/s and 1.49E+10 p/s and 4.29E+10 p/s and 4.73E+10 p/s and 2.09E+10 p/s and 3.23E+10 p/s and 1.93E+10 p/s and 2.82E+10 p/s
MV4-11-Red.Fluc; Day 27, individual ROI (one per animal, ROI 2-10), raw value, listed as ABT-199
  Total Flux: 2.04E+10 p/s and 1.50E+10 p/s and 4.31E+10 p/s and 4.74E+10 p/s and 2.11E+10 p/s and 3.24E+10 p/s and 1.94E+10 p/s and 2.84E+10 p/s
MV4-11-Red.Fluc; [6]
  Total Flux [p/s]: 3.95E+10 p/s and 4.22E+10 p/s and 3.73E+10 p/s and 1.10E+11 p/s and 6.34E+10 p/s and 6.46E+10 p/s and 6.17E+10 p/s and 4.73E+10 p/s and 4.87E+10 p/s
  Total flux minus background control mouse (ROI 1): 3.92E+10 p/s and 4.19E+10 p/s and 3.70E+10 p/s and 1.10E+11 p/s and 6.31E+10 p/s and 6.43E+10 p/s and 6.13E+10 p/s and 4.70E+10 p/s and 4.84E+10 p/s
MV4-11-Red.Fluc; Day 34, individual ROI (one per animal), background-subtracted, listed as ABT-199
  Total Flux minus ROI 1 (background): 6.39E+10 p/s and 5.69E+10 p/s and 4.58E+10 p/s and 3.00E+11 p/s and 1.05E+11 p/s and 1.25E+11 p/s and 8.20E+10 p/s and 1.20E+11 p/s and 6.30E+10 p/s
MV4-11-Red.Fluc; Day 34, individual ROI (one per animal, ROI 2-10), raw value, listed as ABT-199
  Total Flux: 6.47E+10 p/s and 5.77E+10 p/s and 4.66E+10 p/s and 3.01E+11 p/s and 1.06E+11 p/s and 1.26E+11 p/s and 8.28E+10 p/s and 1.21E+11 p/s and 6.39E+10 p/s
MV4-11-Red.Fluc; Day 38, individual ROI (one per animal), background-subtracted, listed as ABT-199
  Total Flux minus ROI 1 (background): 3.53E+10 p/s and 1.45E+11 p/s and 3.00E+11 p/s and 1.27E+11 p/s and 1.37E+11 p/s and 1.69E+11 p/s and 9.41E+10 p/s and 1.57E+11 p/s
MV4-11-Red.Fluc; Day 38, individual ROI (one per animal, ROI 2-10), raw value, listed as ABT-199
  Total Flux: 3.60E+10 p/s and 1.46E+11 p/s and 3.01E+11 p/s and 1.27E+11 p/s and 1.38E+11 p/s and 1.69E+11 p/s and 9.48E+10 p/s and 1.57E+11 p/s
MV4-11-Red.Fluc; Day 41, individual ROI (one per animal), background-subtracted, listed as ABT-199
  Total Flux minus ROI 1 (background): 2.65E+11 p/s and 1.77E+09 p/s and 1.55E+11 p/s and 4.70E+11 p/s and -1.25E+08 p/s and 2.06E+11 p/s and 5.84E+11 p/s and 2.05E+08 p/s and 1.78E+11 p/s
MV4-11-Red.Fluc; Day 41, individual ROI (one per animal, ROI 2-10), raw value, listed as ABT-199
  Total Flux: 2.66E+11 p/s and 3.30E+09 p/s and 1.57E+11 p/s and 4.71E+11 p/s and 1.41E+09 p/s and 2.08E+11 p/s and 5.85E+11 p/s and 1.74E+09 p/s and 1.80E+11 p/s
MV4-11-Red.Fluc; Day 45, individual ROI (one per animal), background-subtracted, listed as ABT-199
  Total Flux minus ROI 1 (background): -3.57E+08 p/s and -4.07E+08 p/s and -2.51E+08 p/s and -8.01E+08 p/s and 2.76E+08 p/s and 4.15E+11 p/s and -2.10E+07 p/s and 1.27E+08 p/s and 8.71E+11 p/s
MV4-11-Red.Fluc; Day 45, individual ROI (one per animal, ROI 2-10), raw value, listed as ABT-199
  Total Flux: 9.69E+08 p/s and 9.19E+08 p/s and 1.08E+09 p/s and 5.25E+08 p/s and 1.60E+09 p/s and 4.16E+11 p/s and 1.30E+09 p/s and 1.45E+09 p/s and 8.72E+11 p/s
MV4-11-Red.Fluc; Day 52, individual ROI (one per animal), background-subtracted, listed as ABT-199
  Total Flux minus ROI 1 (background): 4.43E+11 p/s and 2.98E+10 p/s
MV4-11-Red.Fluc; Day55, individual ROI (one per animal), background-subtracted
  Total Flux minus ROI 1 (background): 5.08E+11 p/s
MV4-11-Red.Fluc; Day55, individual ROI (one per animal, ROI 2-10), raw value
  Total Flux: 5.09E+11 p/s
MV4-11-Red.Fluc; day 6
  bioluminescence signal, group Average, 10 min post: 7.85E+07
  bioluminescence signal, individual mouse (ear tag), 10 min post: 6.21E+07 and 5.74E+07 and 4.57E+07 and 1.10E+08 and 9.71E+07 and 7.20E+07 and 8.40E+07 and 9.10E+07
MV4-11-Red.Fluc; day 10
  bioluminescence signal, group Average, 10 min post: 5.02E+08
  bioluminescence signal, individual mouse (ear tag), 10 min post: 3.02E+08 and 5.77E+08 and 2.27E+08 and 9.68E+08 and 7.24E+08 and 4.68E+08 and 3.50E+08 and 4.61E+08
MV4-11-Red.Fluc; day 13
  bioluminescence signal, group Average, 10 min post: 1.09E+09
MV4-11-Red.Fluc; day 17
  bioluminescence signal, group Average, 10 min post: 4.62E+09
  bioluminescence signal, individual mouse (ear tag), 10 min post: 3.54E+09 and 4.80E+09 and 3.65E+09 and 6.19E+09 and 6.79E+09 and 2.67E+09 and 4.40E+09 and 4.67E+09
MV4-11-Red.Fluc; day 20
  bioluminescence signal, group Average, 10 min post: 9.05E+09
  bioluminescence signal, individual mouse (ear tag), 10 min post: 8.51E+09 and 1.38E+10 and 5.28E+09 and 1.23E+10 and 6.88E+09 and 6.58E+09 and 8.42E+09 and 1.02E+10
MV4-11-Red.Fluc; day 24
  bioluminescence signal, group Average, 10 min post: 1.53E+10
  bioluminescence signal, individual mouse (ear tag), 10 min post: 9.16E+09 and 1.73E+10 and 6.56E+09 and 2.31E+10 and 2.87E+10 and 1.24E+10 and 1.46E+10 and 1.55E+10
MV4-11-Red.Fluc; day 27
  bioluminescence signal, group Average, 10 min post: 2.79E+10
  bioluminescence signal, individual mouse (ear tag), 10 min post: 2.48E+10 and 2.02E+10 and 1.49E+10 and 4.29E+10 and 4.73E+10 and 2.09E+10 and 3.23E+10 and 1.93E+10
MV4-11-Red.Fluc; day 31
  bioluminescence signal, group Average, 10 min post: 5.69E+10
MV4-11-Red.Fluc; day 34
  bioluminescence signal, group Average, 10 min post: 1.07E+11
MV4-11-Red.Fluc; day 38
  bioluminescence signal, group Average, 10 min post: 1.45E+11
MV4-11-Red.Fluc; day 41
  bioluminescence signal, group Average, 10 min post: 3.10E+11
  bioluminescence signal, individual mouse (ear tag), 10 min post: 2.65E+11 and 1.55E+11 and 4.70E+11 and 2.06E+11 and 5.84E+11
MV4-11-Red.Fluc; day 45
  bioluminescence signal, group Average, 10 min post: 6.43E+11
  bioluminescence signal, individual mouse (ear tag), 10 min post: 4.15E+11
MV4-11-Red.Fluc; day 48
  bioluminescence signal, group Average, 10 min post: 2.37E+11
  bioluminescence signal, individual mouse (ear tag), 10 min post: 4.43E+11
MV4-11-Red.Fluc; day 55
  bioluminescence signal, group Average, 10 min post: 8.71E+11
